Results: patent publication EP0232089B1, “Quinone amides, their production and use” (Takeda Chemical Industries, Ltd., priority 1986, dated 1987)
Marks after values point to notes of the source that are not given here.

Test system: Bronchoconstriction in guinea pigs induced by PAF
Experiment: Platelet activating factor (PAF)-induced bronchoconstriction in guinea pigs (method of Konzett-Rossler)
Assay type: in vivo
Details: 8 animals
Protocol: Platelet activating factor (PAF)-induced bronchoconstriction in guinea pigs
Bronchoconstriction in guinea pigs induced by PAF (1 µg/kg, intravenous injection) was measured by the method of Konzett-Rossler. The following procedure was the same as that in leukotriene D4(LTD4)-induced bronchoconstriction. Test drugs were orally administered as a 5% gum arabic solution one hour before administration of PAF. Table 2 Inhibitory action against bronchoconstriction in guinea pigs

[1] = dose 5 mg/kg orally as 5% gum arabic solution one hour before PAF (1 µg/kg, intravenous injection)

| SMILES | % inhibition [1] | % inhibition (dose 0.313 mg/kg orally as 5% gum arabic solution one hour before PAF (1 µg/kg, intravenous injection)) | % inhibition (dose 1.25 mg/kg orally as 5% gum arabic solution one hour before PAF (1 µg/kg, intravenous injection)) |
| --- | --- | --- | --- |
| CC1=C(C)C(=O)C(C(CCCCCC(=O)NC(Cc2ccccc2)C(=O)O)c2ccccc2)=C(C)C1=O (centres unmarked) [Compound No. 30] | 72.1* % |  |  |
| CC1=C(C)C(=O)C(C(CCCCCC(N)=O)c2ccccc2)=C(C)C1=O (centres unmarked) [Compound No. 1, 7-(3,5,6-trimethyl-1,4-benzoquinon-2-yl)-7-phenylheptanamide] | 100.0** % | 49.7* % | 80.3** % |
| CC1=C(C)C(=O)C(C(CCCCCC(=O)N2CCN(CCc3ccccc3)CC2)c2ccccc2)=C(C)C1=O (racemic) [Compound No. 18, 7-(3,5,6-trimethyl-1 ,4-benzoquinon-2-yl)-7-phenylheptanoic acid 4-(2-phenylethyl)-piperazinamide] | 59.9* % |  |  |
